# Test results: ChEMBL document CHEMBL1795229, “Vasorelaxant effects of macrocyclic bis(bibenzyls) from liverworts” (Bioorg Med Chem, 2011)
# pIC50: −log10 of the molar value. The source made the active and inactive calls. The calls are words filed in the database; no cut-off is given here.
# Tested on: Aorta
# Test: Vasorelaxant activity in Wistar rat endothelium-intact aortic rings assessed as inhibition of phenylephrine-induced contractions at 30 uM after 10 to 30 mins
# Format: functional, tissue-based
# Conditions: not given
row,Compound,inhibition
1,COC1Cc2cccc(c2)Oc2c(O)cccc2CCc2ccc(cc2)Oc2cc1cc(O)c2O (configuration not stated),Active
2,COc1cc(CCc2cccc(Oc3c(O)cccc3CCc3ccc(O)cc3)c2)cc(O)c1O,Active
3,COc1cc2cc(c1OC)Oc1ccc(cc1)CCc1ccc(OC)c(OC)c1Oc1cccc(c1)CC2,Active
4,COc1ccc2c(c1)CCc1ccc(OC)c(c1)-c1cc(ccc1OC)CCc1ccc-2c(OC)c1,Active
5,COc1cccc(CCc2ccc(O)c(Oc3ccc(CCc4cccc(O)c4)cc3)c2)c1,Active
6,COc1cccc2c1Oc1cccc(c1)CCc1cc(OC)c(OC)c(c1)Oc1ccc(cc1)CC2,Active
7,Oc1cc2cc(c1O)Oc1ccc(cc1)CCc1ccc(O)c(O)c1Oc1cccc(c1)CC2,Active
8,Oc1cc2cc(c1O)Oc1ccc(cc1)CCc1cccc(O)c1Oc1cccc(c1)CC2,Active
9,Oc1ccc(CCc2cccc(O)c2O)cc1Oc1ccc(CCc2cccc(O)c2O)cc1,Active
10,Oc1ccc2c(c1)/C=C/c1ccc(O)c(c1)Oc1ccc(cc1)CCc1cccc(c1)O2,Active
11,Oc1ccc2c(c1)CCc1ccc(O)c(c1)-c1cc(ccc1O)/C=C\c1cccc(c1)O2,Active
12,Oc1ccc2c(c1)CCc1ccc(cc1)Oc1cc(cc(-c3cc4cc(c3O)Oc3ccc(cc3)CCc3cc(O)ccc3-c3ccc(cc3O)CC4)c1O)CCc1ccc-2c(O)c1,Active
13,Oc1ccc2cc1Oc1ccc(cc1)CCc1cccc(c1)Oc1c(O)cccc1CC2,Active
14,Oc1ccc2cc1-c1cc(ccc1O)CCc1c(ccc(O)c1O)Oc1cccc(c1)/C=C\2 [ISOPLAGIOCHIN B],Active
15,Oc1ccc2c(c1)CCc1ccc(O)c(c1)-c1cc(ccc1O)CCc1ccc-2c(O)c1 [ISOPLAGIOCHIN D],Active
16,Oc1cccc(CCc2ccc(Oc3cc(CCc4cccc(O)c4)cc(O)c3O)cc2)c1 [PERROTETTIN F],Active
17,COc1cc2c(cc1O)-c1ccc(O)cc1CCc1cc(O)c(O)c(c1)Oc1ccc(cc1)CC2 [PLAGIOCHIN A],Active
18,Oc1ccc2c(c1)CCc1ccc(cc1)Oc1cc(ccc1O)CCc1ccc-2c(O)c1 [RICCARDI C],Active
19,COc1ccc2cc1Oc1ccc(cc1)CCc1cc(O)ccc1-c1ccc(cc1O)CC2 [RICCARDI F],Active
20,COc1ccc2c(c1)CCc1ccc(cc1)Oc1cc(ccc1O)CCc1ccc-2c(O)c1 [RICCARDIN A],Active

# Tested on: Aorta
# Test: Vasorelaxant activity in Wistar rat endothelium-intact aortic rings assessed as inhibition of phenylephrine-induced contractions after 10 to 60 mins
# Format: functional, tissue-based
# Conditions: not given
row,Compound,inhibition
1,Oc1ccc2cc1-c1cc(ccc1O)CCc1c(ccc(O)c1O)Oc1cccc(c1)/C=C\2 [ISOPLAGIOCHIN B],Dose-dependent effect
2,Oc1ccc2c(c1)CCc1ccc(O)c(c1)-c1cc(ccc1O)CCc1ccc-2c(O)c1 [ISOPLAGIOCHIN D],Dose-dependent effect
3,Oc1cccc(CCc2ccc(Oc3cc(CCc4cccc(O)c4)cc(O)c3O)cc2)c1 [PERROTETTIN F],Dose-dependent effect
4,COc1cc2c(cc1O)-c1ccc(O)cc1CCc1cc(O)c(O)c(c1)Oc1ccc(cc1)CC2 [PLAGIOCHIN A],Dose-dependent effect
5,Oc1ccc2c(c1)CCc1ccc(cc1)Oc1cc(ccc1O)CCc1ccc-2c(O)c1 [RICCARDI C],Dose-dependent effect
6,COc1ccc2cc1Oc1ccc(cc1)CCc1cc(O)ccc1-c1ccc(cc1O)CC2 [RICCARDI F],Dose-dependent effect
7,COc1ccc2c(c1)CCc1ccc(cc1)Oc1cc(ccc1O)CCc1ccc-2c(O)c1 [RICCARDIN A],Dose-dependent effect

# Tested on: Aorta
# Test: Vasorelaxant activity in Wistar rat endothelium-intact aortic rings assessed as inhibition of phenylephrine-induced contractions at 10 to 100 uM
# Format: functional, tissue-based
# Conditions: TDE = time-dependent effect
row,Compound,inhibition
1,Oc1ccc2cc1-c1cc(ccc1O)CCc1c(ccc(O)c1O)Oc1cccc(c1)/C=C\2 [ISOPLAGIOCHIN B],tde
2,Oc1ccc2c(c1)CCc1ccc(O)c(c1)-c1cc(ccc1O)CCc1ccc-2c(O)c1 [ISOPLAGIOCHIN D],tde
3,Oc1cccc(CCc2ccc(Oc3cc(CCc4cccc(O)c4)cc(O)c3O)cc2)c1 [PERROTETTIN F],tde
4,COc1cc2c(cc1O)-c1ccc(O)cc1CCc1cc(O)c(O)c(c1)Oc1ccc(cc1)CC2 [PLAGIOCHIN A],tde
5,Oc1ccc2c(c1)CCc1ccc(cc1)Oc1cc(ccc1O)CCc1ccc-2c(O)c1 [RICCARDI C],tde
6,COc1ccc2cc1Oc1ccc(cc1)CCc1cc(O)ccc1-c1ccc(cc1O)CC2 [RICCARDI F],tde
7,COc1ccc2c(c1)CCc1ccc(cc1)Oc1cc(ccc1O)CCc1ccc-2c(O)c1 [RICCARDIN A],tde

# Tested on: Aorta
# Test: Vasorelaxant activity in Wistar rat endothelium-intact aortic rings assessed as inhibition of phenylephrine-induced contractions at 10 to 100 uM after 10 to 60 mins
# Format: functional
# Conditions: not given
row,Compound,inhibition (INH) [%]
1,Oc1ccc2cc1-c1cc(ccc1O)CCc1c(ccc(O)c1O)Oc1cccc(c1)/C=C\2 [ISOPLAGIOCHIN B],>60
2,Oc1ccc2c(c1)CCc1ccc(O)c(c1)-c1cc(ccc1O)CCc1ccc-2c(O)c1 [ISOPLAGIOCHIN D],>60
3,Oc1cccc(CCc2ccc(Oc3cc(CCc4cccc(O)c4)cc(O)c3O)cc2)c1 [PERROTETTIN F],>60
4,COc1cc2c(cc1O)-c1ccc(O)cc1CCc1cc(O)c(O)c(c1)Oc1ccc(cc1)CC2 [PLAGIOCHIN A],>60
5,Oc1ccc2c(c1)CCc1ccc(cc1)Oc1cc(ccc1O)CCc1ccc-2c(O)c1 [RICCARDI C],>60
6,COc1ccc2cc1Oc1ccc(cc1)CCc1cc(O)ccc1-c1ccc(cc1O)CC2 [RICCARDI F],>60
7,COc1ccc2c(c1)CCc1ccc(cc1)Oc1cc(ccc1O)CCc1ccc-2c(O)c1 [RICCARDIN A],>60

# Tested on: Aorta
# Test: Vasorelaxant activity in Wistar rat endothelium-denuded aortic rings assessed as inhibition of phenylephrine-induced contractions at 10 to 100 uM after 10 to 60 mins
# Format: functional
# Conditions: not given
Compound,inhibition (INH) [%],inhibition
Oc1ccc2cc1-c1cc(ccc1O)CCc1c(ccc(O)c1O)Oc1cccc(c1)/C=C\2 [ISOPLAGIOCHIN B],>80,
Oc1ccc2c(c1)CCc1ccc(O)c(c1)-c1cc(ccc1O)CCc1ccc-2c(O)c1 [ISOPLAGIOCHIN D],>80,
Oc1cccc(CCc2ccc(Oc3cc(CCc4cccc(O)c4)cc(O)c3O)cc2)c1 [PERROTETTIN F],>80,
COc1cc2c(cc1O)-c1ccc(O)cc1CCc1cc(O)c(O)c(c1)Oc1ccc(cc1)CC2 [PLAGIOCHIN A],,inactive
Oc1ccc2c(c1)CCc1ccc(cc1)Oc1cc(ccc1O)CCc1ccc-2c(O)c1 [RICCARDI C],,inactive
COc1ccc2cc1Oc1ccc(cc1)CCc1cc(O)ccc1-c1ccc(cc1O)CC2 [RICCARDI F],,inactive
COc1ccc2c(c1)CCc1ccc(cc1)Oc1cc(ccc1O)CCc1ccc-2c(O)c1 [RICCARDIN A],,inactive

# Tested on: Aorta
# Test: Vasorelaxant activity in Wistar rat endothelium-denuded aortic rings assessed as inhibition of phenylephrine-induced contractions at 10 to 100 uM
# Format: functional, tissue-based
# Conditions: TDE = time-dependent effect
row,Compound,inhibition
1,Oc1ccc2cc1-c1cc(ccc1O)CCc1c(ccc(O)c1O)Oc1cccc(c1)/C=C\2 [ISOPLAGIOCHIN B],tde
2,Oc1ccc2c(c1)CCc1ccc(O)c(c1)-c1cc(ccc1O)CCc1ccc-2c(O)c1 [ISOPLAGIOCHIN D],tde
3,Oc1cccc(CCc2ccc(Oc3cc(CCc4cccc(O)c4)cc(O)c3O)cc2)c1 [PERROTETTIN F],tde

# Tested on: Aorta
# Test: Vasorelaxant activity in Wistar rat aortic rings assessed as inhibition of phenylephrine-induced contractions at 10 to 100 uM after 10 to 60 mins in presence of 100 uM of NO synthase inhibitor L-NMMA
# Format: functional, tissue-based
# Conditions: not given
row,Compound,inhibition
1,COc1cc2c(cc1O)-c1ccc(O)cc1CCc1cc(O)c(O)c(c1)Oc1ccc(cc1)CC2 [PLAGIOCHIN A],inactive

# Tested on: Aorta
# Test: Vasorelaxant activity in Wistar rat endothelium-denuded aortic rings assessed as inhibition of phenylephrine-induced contractions presence of 1 mM of potassium channel inhibitor TEA
# Format: functional, tissue-based
# Conditions: not given
row,Compound,inhibition
1,Oc1ccc2cc1-c1cc(ccc1O)CCc1c(ccc(O)c1O)Oc1cccc(c1)/C=C\2 [ISOPLAGIOCHIN B],inactive
2,Oc1ccc2c(c1)CCc1ccc(O)c(c1)-c1cc(ccc1O)CCc1ccc-2c(O)c1 [ISOPLAGIOCHIN D],Active
3,Oc1cccc(CCc2ccc(Oc3cc(CCc4cccc(O)c4)cc(O)c3O)cc2)c1 [PERROTETTIN F],Active

# Tested on: Aorta
# Test: Vasorelaxant activity in Wistar rat endothelium-denuded aortic rings assessed as inhibition of calcium chloride-induced contractions in calcium-free potassium-rich medium at 30 uM
# Format: functional, tissue-based
# Conditions: not given
row,Compound,inhibition
1,Oc1ccc2cc1-c1cc(ccc1O)CCc1c(ccc(O)c1O)Oc1cccc(c1)/C=C\2 [ISOPLAGIOCHIN B],inactive
2,Oc1ccc2c(c1)CCc1ccc(O)c(c1)-c1cc(ccc1O)CCc1ccc-2c(O)c1 [ISOPLAGIOCHIN D],Active
3,Oc1cccc(CCc2ccc(Oc3cc(CCc4cccc(O)c4)cc(O)c3O)cc2)c1 [PERROTETTIN F],Active

# Tested on: Aorta
# Test: Vasorelaxant activity in Wistar rat endothelium-denuded aortic rings assessed as inhibition of phenylephrine-induced contractions in calcium-free medium at 30 uM pretreated with nicardipine
# Format: functional, tissue-based
# Conditions: not given
row,Compound,inhibition
1,Oc1ccc2cc1-c1cc(ccc1O)CCc1c(ccc(O)c1O)Oc1cccc(c1)/C=C\2 [ISOPLAGIOCHIN B],Active
2,Oc1ccc2c(c1)CCc1ccc(O)c(c1)-c1cc(ccc1O)CCc1ccc-2c(O)c1 [ISOPLAGIOCHIN D],Active
3,Oc1cccc(CCc2ccc(Oc3cc(CCc4cccc(O)c4)cc(O)c3O)cc2)c1 [PERROTETTIN F],Active

# Tested on: Aorta
# Test: Vasorelaxant activity in Wistar rat endothelium-intact aortic rings assessed as inhibition of phenylephrine-induced contractions after 10 to 30 mins
# Format: functional, tissue-based
# Conditions: not given
row,Compound,pIC50
1,CC(=O)OCC[N+](C)(C)C [ACETYLCHOLINE],6.00
